Experimental data: patent publication US10023570B2 (Array BioPharma, Inc., priority 2015, dated 2018)
Where two headings read alike, the source gives them in different places.

Key:
[1] = biological target: Kif5b-RET fusion protein in HEK-293 cells (Homo sapiens, UniProt P07949); assay: cell-based
[2] = biological target: N-terminal GST tagged recombinant human RET cytoplasmic domain (aa 658-end), wild type RET kinase (Homo sapiens (Human), UniProt P07949); assay: RET Enzyme Assay (HTRF KinEASE-TK), wild type RET; format: biochemical
N-terminal GST tagged recombinant human RET cytoplasmic domain (aa 658-end), wild type RET kinase, sequence (P07949 658-1114): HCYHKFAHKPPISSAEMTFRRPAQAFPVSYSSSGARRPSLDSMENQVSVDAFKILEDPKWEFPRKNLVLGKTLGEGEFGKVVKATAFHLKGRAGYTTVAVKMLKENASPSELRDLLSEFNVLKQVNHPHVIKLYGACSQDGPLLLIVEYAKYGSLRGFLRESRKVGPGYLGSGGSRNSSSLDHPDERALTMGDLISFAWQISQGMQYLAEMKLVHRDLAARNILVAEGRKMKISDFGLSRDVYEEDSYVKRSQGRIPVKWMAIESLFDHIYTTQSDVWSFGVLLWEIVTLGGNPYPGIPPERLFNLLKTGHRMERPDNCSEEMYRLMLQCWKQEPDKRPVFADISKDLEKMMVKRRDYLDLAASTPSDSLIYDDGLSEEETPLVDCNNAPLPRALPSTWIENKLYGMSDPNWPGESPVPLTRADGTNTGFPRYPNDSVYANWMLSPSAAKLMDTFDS

[3] = biological target: human KDR protein in HEK-293 cells (Homo sapiens (Human), UniProt P35968); assay: KDR Cell Assay (phospho-KDR in HEK-293 cells expressing inducible KDR); format: cell-based; settings: pKDR Cell HEK 10% FBS IC50, HEK-293 cells expressing inducible KDR, VEGF stimulated
human KDR protein in HEK-293 cells, sequence (P35968 20-1356): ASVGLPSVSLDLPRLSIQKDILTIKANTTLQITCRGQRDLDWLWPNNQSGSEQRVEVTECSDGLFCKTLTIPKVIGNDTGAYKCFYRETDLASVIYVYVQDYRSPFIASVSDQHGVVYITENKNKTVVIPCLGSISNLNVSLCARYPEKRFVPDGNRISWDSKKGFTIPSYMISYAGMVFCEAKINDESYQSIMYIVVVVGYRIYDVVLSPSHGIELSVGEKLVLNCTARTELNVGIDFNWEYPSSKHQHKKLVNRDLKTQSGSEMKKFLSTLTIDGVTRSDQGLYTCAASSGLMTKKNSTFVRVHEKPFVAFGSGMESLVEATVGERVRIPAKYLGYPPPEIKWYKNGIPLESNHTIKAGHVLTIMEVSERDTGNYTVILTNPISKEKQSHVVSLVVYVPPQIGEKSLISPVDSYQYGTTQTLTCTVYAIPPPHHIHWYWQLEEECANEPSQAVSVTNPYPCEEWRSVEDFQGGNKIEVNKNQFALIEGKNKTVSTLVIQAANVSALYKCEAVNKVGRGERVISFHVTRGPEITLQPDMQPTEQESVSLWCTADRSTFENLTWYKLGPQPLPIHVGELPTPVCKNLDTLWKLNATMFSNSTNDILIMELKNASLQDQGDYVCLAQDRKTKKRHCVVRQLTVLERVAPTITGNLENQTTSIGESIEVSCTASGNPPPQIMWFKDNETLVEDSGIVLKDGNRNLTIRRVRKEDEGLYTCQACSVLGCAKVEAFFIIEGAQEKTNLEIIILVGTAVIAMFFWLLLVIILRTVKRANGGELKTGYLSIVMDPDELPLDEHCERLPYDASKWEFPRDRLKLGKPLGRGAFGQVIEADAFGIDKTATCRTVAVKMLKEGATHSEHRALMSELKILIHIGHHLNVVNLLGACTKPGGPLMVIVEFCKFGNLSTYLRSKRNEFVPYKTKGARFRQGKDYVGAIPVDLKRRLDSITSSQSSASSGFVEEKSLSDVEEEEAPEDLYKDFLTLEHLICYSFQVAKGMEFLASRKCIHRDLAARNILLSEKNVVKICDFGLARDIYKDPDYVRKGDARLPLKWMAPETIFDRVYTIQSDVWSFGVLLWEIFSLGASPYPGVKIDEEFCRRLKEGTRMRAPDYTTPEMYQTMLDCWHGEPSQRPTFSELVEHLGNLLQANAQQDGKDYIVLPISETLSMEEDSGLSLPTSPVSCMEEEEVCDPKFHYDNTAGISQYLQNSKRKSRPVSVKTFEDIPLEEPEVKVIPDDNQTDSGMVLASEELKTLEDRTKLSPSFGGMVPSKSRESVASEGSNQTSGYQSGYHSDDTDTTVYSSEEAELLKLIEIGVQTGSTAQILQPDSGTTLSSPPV
Procedure, shortened: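 HEK-293 cells with inducible human KDR were treated with compound for 1 h in DMEM (0.25% DMSO final), then lysed. Phospho-KDR was quantified by Meso Scale immunoassay, expressed as percent of control, and IC50 taken where a 4-parameter logistic fit crossed 50 POC.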

[4] = read-out: KIF5B-RET pTYR1062 Cell IC50
[5] = HEK-293 cells expressing Kif5b-RET, phospho-RET(Tyr1062), read-out: KIF5B-RET pTYR1062 Cell IC50
[6] = HEK-293 cells expressing Kif5b-RET, read-out: KIF5B-RET pTYR1062 Cell IC50

Kif5b-RET fusion protein in HEK-293 cells, sequence (P07949 29-1114 limits assumed): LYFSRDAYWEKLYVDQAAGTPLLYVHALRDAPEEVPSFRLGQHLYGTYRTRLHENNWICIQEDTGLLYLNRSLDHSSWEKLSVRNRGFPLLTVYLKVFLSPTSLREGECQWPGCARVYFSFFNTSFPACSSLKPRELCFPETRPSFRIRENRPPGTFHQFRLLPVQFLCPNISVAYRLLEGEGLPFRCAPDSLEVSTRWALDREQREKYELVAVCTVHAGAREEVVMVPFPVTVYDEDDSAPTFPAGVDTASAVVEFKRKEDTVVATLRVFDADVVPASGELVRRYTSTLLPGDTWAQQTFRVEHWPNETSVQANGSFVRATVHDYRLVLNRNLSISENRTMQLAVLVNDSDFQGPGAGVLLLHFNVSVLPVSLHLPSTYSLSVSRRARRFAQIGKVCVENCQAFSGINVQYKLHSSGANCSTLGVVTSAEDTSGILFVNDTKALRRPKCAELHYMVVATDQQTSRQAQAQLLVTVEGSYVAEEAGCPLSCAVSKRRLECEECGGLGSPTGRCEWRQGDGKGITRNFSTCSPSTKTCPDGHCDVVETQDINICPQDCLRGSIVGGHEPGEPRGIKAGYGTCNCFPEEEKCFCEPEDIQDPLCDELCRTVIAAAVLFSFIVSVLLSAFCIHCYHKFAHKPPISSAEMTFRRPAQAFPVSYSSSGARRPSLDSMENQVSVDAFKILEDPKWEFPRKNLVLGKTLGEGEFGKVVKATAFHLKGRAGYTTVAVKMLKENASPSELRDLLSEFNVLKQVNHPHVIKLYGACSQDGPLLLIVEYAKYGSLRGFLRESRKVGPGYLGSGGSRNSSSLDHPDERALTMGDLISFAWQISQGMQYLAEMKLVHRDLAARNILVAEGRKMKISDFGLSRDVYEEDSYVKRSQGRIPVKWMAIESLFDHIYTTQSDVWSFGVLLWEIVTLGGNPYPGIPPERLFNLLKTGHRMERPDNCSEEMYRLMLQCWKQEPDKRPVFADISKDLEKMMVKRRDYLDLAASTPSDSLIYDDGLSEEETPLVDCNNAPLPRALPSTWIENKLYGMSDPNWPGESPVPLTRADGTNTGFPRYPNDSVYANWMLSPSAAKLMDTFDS

SMILES | IC50 ([2]; wild type RET, 1 mM ATP) [nM] | IC50 ([3]; 10% FBS) [nM] | IC50 [1, 5] [nM] | IC50 [1, 6] [nM] | IC50 [3] [nM] | IC50 [1, 4] [nM] | IC50 [2] [nM] | IC50 [1] [nM]
CN(C)C(=O)CCN1CCN(c2ccc(-c3cc(-c4cnn(C)c4)cn4ncc(C#N)c34)cn2)CC1 [Example 146, 3-(4-(5-(3-cyano-6-(1-methyl-1H-pyrazol-4-yl)pyrazolo[1,5-a]pyridin-4-yl)pyridin-2-yl)piperazin-1-yl)-N,N-dimethylpropanamide 2,2,2-trifluoroacetate] | 12.3 | 736 |  |  |  | 29 |  | 
CCCC(=O)N1CCN(c2ccc(-c3cc(-c4cnn(C)c4)cn4ncc(C#N)c34)cn2)CC1 [Example 70, 4-(6-(4-butyrylpiperazin-1-yl)pyridin-3-yl)-6-(1-methyl-1H-pyrazol-4-yl)pyrazolo[1,5-a]pyridine-3-carbonitrile] | 8.4 | 510 | 18.5 |  |  |  |  | 
CC(C)CC(=O)N1CCN(c2ccc(-c3cc(-c4cnn(C(F)F)c4)cn4ncc(C#N)c34)cn2)CC1 [Example 267, 6-(1-(difluoromethyl)-1H-pyrazol-4-yl)-4-(6-(4-(3-methylbutanoyl)piperazin-1-yl)pyridin-3-yl)pyrazolo[1,5-a]pyridine-3-carbonitrile] | 11 | 2760 | 13.6 |  |  |  |  | 
COC(C)(C)CN1CCN(c2ccc(-c3cc(-c4cnn(C)c4)cn4ncc(C#N)c34)cn2)CC1 [Example 414, 4-(6-(4-(2-methoxy-2-methylpropyl)piperazin-1-yl)pyridin-3-yl)-6-(1-methyl-1H-pyrazol-4-yl)pyrazolo[1,5-a]pyridine-3-carbonitrile] | 41.3 |  |  | 41.5 | 2280 |  |  | 
COCC(C)NC(=O)C1CCN(c2ccc(-c3cc(-c4cnn(C)c4)cn4ncc(C#N)c34)cn2)CC1 (stereo not drawn) [Example 232, 1-(5-(3-cyano-6-(1-methyl-1H-pyrazol-4-yl)pyrazolo[1,5-a]pyridin-4-yl)pyridin-2-yl)-N-(1-methoxypropan-2-yl)piperidine-4-carboxamide] | 12.1 | 812 | 24.4 |  |  |  |  | 
COCCN(C)C(=O)N1CCN(c2ccc(-c3cc(-c4cnn(C)c4)cn4ncc(C#N)c34)cn2)CC1 [Example 130, 4-(5-(3-cyano-6-(1-methyl-1H-pyrazol-4-yl)pyrazolo[1,5-a]pyridin-4-yl)pyridin-2-yl)-N-(2-methoxyethyl)-N-methylpiperazine-1-carboxamide 2,2,2-trifluoroacetate] | 20.8 | 2250 |  |  |  | 33 |  | 
COCC(=O)N1CCN(c2ccc(-c3cc(-c4cnn(C)c4)cn4ncc(Cl)c34)cn2)CC1 [Example 329, 1-(4-(5-(3-chloro-6-(1-methyl-1H-pyrazol-4-yl)pyrazolo[1,5-a]pyridin-4-yl)pyridin-2-yl)piperazin-1-yl)-2-methoxyethanone] | 23.2 | 381 | 45.6 |  |  |  |  | 
CC(C)C(=O)NC1CCN(c2ccc(-c3cc(-c4cnn(C)c4)cn4ncc(C#N)c34)cn2)CC1 [Example 185, N-(1-(5-(3-cyano-6-(1-methyl-1H-pyrazol-4-yl)pyrazolo[1,5-a]pyridin-4-yl)pyridin-2-yl)piperidin-4-yl)isobutyramide] | 11.5 | 628 | 14.3 |  |  |  |  | 
CCC1(C(=O)N[C@H](C)C(F)(F)F)CCN(c2ccc(-c3cc(-c4cnn(C)c4)cn4ncc(C#N)c34)cn2)CC1 [Example 257, (R)-1-(5-(3-cyano-6-(1-methyl-1H-pyrazol-4-yl)pyrazolo[1,5-a]pyridin-4-yl)pyridin-2-yl)-4-ethyl-N-(1,1,1-trifluoropropan-2-yl)piperidine-4-carboxamide] | 14.9 | 1350 | 9.3 |  |  |  |  | 
CC(C)NC(=O)NC1CCN(c2ccc(-c3cc(-c4cnn(C)c4)cn4ncc(C#N)c34)cn2)CC1 [Example 187, 1-(1-(5-(3-cyano-6-(1-methyl-1H-pyrazol-4-yl)pyrazolo[1,5-a]pyridin-4-yl)pyridin-2-yl)piperidin-4-yl)-3-isopropylurea] | 15.9 | 871 | 20.4 |  |  |  |  | 
CN(C)C(=O)CN1CCN(c2ccc(-c3cc(-c4cnn(C)c4)cn4ncc(C#N)c34)cn2)CC1 [Example 143, 2-(4-(5-(3-cyano-6-(1-methyl-1H-pyrazol-4-yl)pyrazolo[1,5-a]pyridin-4-yl)pyridin-2-yl)piperazin-1-yl)-N,N-dimethylacetamide 2,2,2-trifluoroacetate] |  | 1800 | 69.8 |  |  |  | 34.1 | 
CC(C)OC(=O)NC1CCN(c2ccc(-c3cc(-c4cnn(C)c4)cn4ncc(C#N)c34)cn2)CC1 [Example 188, Isopropyl (1-(5-(3-cyano-6-(1-methyl-1H-pyrazol-4-yl)pyrazolo[1,5-a]pyridin-4-yl)pyridin-2-yl)piperidin-4-yl)carbamate] | 16.8 | 614 | 9.7 |  |  |  |  | 
Cn1cc(-c2cc(-c3ccc(N4CCN(C(=O)[C@H](O)C(F)(F)F)CC4)nc3)c3c(C#N)cnn3c2)cn1 [Example 61, (S)-6-(1-methyl-1H-pyrazol-4-yl)-4-(6-(4-(3,3,3-trifluoro-2-hydroxypropanoyl)piperazin-1-yl)pyridin-3-yl)pyrazolo[1,5-a]pyridine-3-carbonitrile] | 5.5 | 148 | 5.5 |  |  |  |  | 
Cn1cc(-c2cc(-c3ccc(N4CCN(CCNC(=O)OC(C)(C)C)CC4)nc3)c3c(C#N)cnn3c2)cn1 [Example 506, tert-butyl (2-(4-(5-(3-cyano-6-(1-methyl-1H-pyrazol-4-yl)pyrazolo[1,5-a]pyridin-4-yl)pyridin-2-yl)piperazin-1-yl)ethyl)carbamate] | 31.3 |  |  |  | 212 |  |  | 6.5

Continued, in another order:

IC50 ([2]; wild type RET, 1 mM ATP) [nM] | IC50 ([3]; 10% FBS) [nM] | IC50 [1, 5] [nM] | IC50 [1, 6] [nM] | IC50 [3] [nM] | SMILES | IC50 [1, 4] [nM] | IC50 [2] [nM] | IC50 [1] [nM]
12.4 | 1480 | 66.6 |  |  | CC(C)[C@H](O)C(=O)N1CCN(c2ccc(-c3cc(-c4cnn(C)c4)cn4ncc(C#N)c34)cn2)CC1 [Example 54, (S)-4-(6-(4-(2-hydroxy-3-methylbutanoyl)piperazin-1-yl)pyridin-3-yl)-6-(1-methyl-1H-pyrazol-4-yl)pyrazolo[1,5-a]pyridine-3-carbonitrile] |  |  | 
10.5 | 1200 | 109 |  |  | C[C@@H](O)C(=O)NC1CCN(c2ccc(-c3cc(-c4cnn(C)c4)cn4ncc(C#N)c34)cn2)CC1 [Example 181, (R)-N-(1-(5-(3-cyano-6-(1-methyl-1H-pyrazol-4-yl)pyrazolo[1,5-a]pyridin-4-yl)pyridin-2-yl)piperidin-4-yl)-2-hydroxypropanamide] |  |  | 
31.1 | 2350 | 148 |  |  | Cn1cc(-c2cc(-c3ccc(N4CCN(C(=O)CC(C)(C)C)CC4)nc3)c3c(Cl)cnn3c2)cn1 [Example 331, 1-(4-(5-(3-chloro-6-(1-methyl-1H-pyrazol-4-yl)pyrazolo[1,5-a]pyridin-4-yl)pyridin-2-yl)piperazin-1-yl)-3,3-dimethylbutan-1-one] |  |  | 
12.9 | 735 | 4.5 |  |  | CCC1(C(=O)NC(C)C)CCN(c2ccc(-c3cc(-c4cnn(C)c4)cn4ncc(C#N)c34)cn2)CC1 [Example 256, 1-(5-(3-cyano-6-(1-methyl-1H-pyrazol-4-yl)pyrazolo[1,5-a]pyridin-4-yl)pyridin-2-yl)-4-ethyl-N-isopropylpiperidine-4-carboxamide] |  |  | 
7 | 468 | 6.1 |  |  | Cn1cc(-c2cc(-c3ccc(N4CCC(C)(C(=O)NCCC(F)(F)F)CC4)nc3)c3c(C#N)cnn3c2)cn1 [Example 250, 1-(5-(3-cyano-6-(1-methyl-1H-pyrazol-4-yl)pyrazolo[1,5-a]pyridin-4-yl)pyridin-2-yl)-4-methyl-N-(3,3,3-trifluoropropyl)piperidine-4-carboxamide] |  |  | 
22.1 | 921 | 124 |  |  | C[C@H](O)C(=O)N1CCN(c2ccc(-c3cc(-c4cnn(C)c4)cn4ncc(C#N)c34)cn2)CC1 [Example 30, (S)-4-(6-(4-(2-hydroxypropanoyl)piperazin-1-yl)pyridin-3-yl)-6-(1-methyl-1H-pyrazol-4-yl)pyrazolo[1,5-a]pyridine-3-carbonitrile] |  |  | 
11.6 | 656 | 4.8 |  |  | COCC(C)NC(=O)C1(C)CCN(c2ccc(-c3cc(-c4cnn(C)c4)cn4ncc(C#N)c34)cn2)CC1 (stereo not drawn) [Example 252, 1-(5-(3-cyano-6-(1-methyl-1H-pyrazol-4-yl)pyrazolo[1,5-a]pyridin-4-yl)pyridin-2-yl)-N-(1-methoxypropan-2-yl)-4-methylpiperidine-4-carboxamide] |  |  | 
13.6 | 192 | 11 |  |  | CC(C)C(O)CN1CCN(c2ccc(-c3cc(-c4cnn(C)c4)cn4ncc(C#N)c34)cn2)CC1 (stereo not drawn) [Example 160, 4-(6-(4-(2-hydroxy-3-methylbutyl)piperazin-1-yl)pyridin-3-yl)-6-(1-methyl-1H-pyrazol-4-yl)pyrazolo[1,5-a]pyridine-3-carbonitrile] |  |  | 
16.8 |  |  | 5.3 | 347 | COc1ccc(CN2CCN(c3ccc(-c4cc(-c5cnn(C[C@@H](C)O)c5)cn5ncc(C#N)c45)cn3)CC2)cn1 [Example 700, (R)-6-(1-(2-hydroxypropyl)-1H-pyrazol-4-yl)-4-(6-(4-((6-methoxypyridin-3-yl)methyl)piperazin-1-yl)pyridin-3-yl)pyrazolo[5-a]pyridine-3-carbonitrile] |  |  | 
